Measured values from patent US6541482B2, “Carbocyclic nucleoside agents useful as selective inhibitors of proinflammatory cytokines” (priority 1993, dated 2003).

Assays:
lethal effects of LPS = assay: D-galactosamine animal model of septic shock (protection against lethal effects of LPS); format: in vivo; settings: treated about 1 hour before i.p. challenge of D-galactosamine and LPS, 100 mg/kg i.p. for the azido compound; for protection: mice, vehicle HBSS 0% protection; for mice killed: vehicle HBSS 6 out of 6 killed by 18 hours
Experimental: Mice treated with the vehicle Hanks Balanced Salt Solution (HBSS) approximately 1 hour before intraperitoneal (i.p.) challenge of D-galactosamine and LPS, succumb to disease by 18 hours after challenge (e.g. 6 out of 6 mice killed; 0% protection). […] Positive-control PTX afforded […] protection in this model (3 out of 6 mice killed; 50% protection).

TNF-α = assay: Inhibition of TNF-α production by LPS-stimulated human monocyte-derived macrophages; format: cell-based; settings: Macrophage; monocyte-derived macrophages from human peripheral blood, stimulated with LPS, 18 hours of culture; dose response 500 μM-0.1 μM; read-out: IC50 for inhibiting TNF-α levels
Experimental: Monocyte-derived macrophages stimulated with bacterial lipopolysaccharide (LPS) produce high levels of TNF-α (14.87±1.02 ηg/mL) during 18 hours of culture.

Structure (SMILES): CC(=O)CCCCn1c(=O)c2c(ncn2C)n(C)c1=O [Pentoxifylline]
- protection (lethal effects of LPS): 50%
- mice killed (lethal effects of LPS): 3 out of 6
- IC50 (TNF-α): 26.3 ± 16 µM

Structure (SMILES): [N-]=[N+]=NC1CCC(n2cnc3c(N)ncnc32)C1 (stereo not drawn) [1R,3R-trans-1-(9-adenyl)-3-azidocyclopentane]
- protection (lethal effects of LPS): 66%
- mice killed (lethal effects of LPS): 2 out of 6
- IC50 (TNF-α): 5.48 ± 1.3 µM
